Assay results: publication PMC6502434, “The arginine sensing and transport binding sites are distinct in the human pathogen Leishmania” (PLoS Neglected Tropical Diseases, 2019)

Biological target: T1, LdAAP3 (Leishmania donovani, UniProt Q86G79)
T1 construct: native transporter in intact mid-log promastigotes, not overexpressed; no construct
T1 sequence (Q86G79 1-480): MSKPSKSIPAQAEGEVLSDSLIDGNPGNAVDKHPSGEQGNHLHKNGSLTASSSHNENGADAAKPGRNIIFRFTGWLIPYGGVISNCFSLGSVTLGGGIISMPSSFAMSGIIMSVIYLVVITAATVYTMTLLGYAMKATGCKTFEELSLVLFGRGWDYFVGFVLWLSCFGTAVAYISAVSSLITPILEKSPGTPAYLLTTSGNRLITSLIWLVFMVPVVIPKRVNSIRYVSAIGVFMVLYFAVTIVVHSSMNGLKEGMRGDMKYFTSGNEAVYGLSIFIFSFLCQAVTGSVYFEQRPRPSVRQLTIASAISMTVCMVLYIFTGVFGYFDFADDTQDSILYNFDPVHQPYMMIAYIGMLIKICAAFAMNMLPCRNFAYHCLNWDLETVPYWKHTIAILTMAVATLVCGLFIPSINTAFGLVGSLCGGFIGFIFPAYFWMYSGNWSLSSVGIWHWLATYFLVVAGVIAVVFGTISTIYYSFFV
Assay: inhibition of [3H]arginine uptake by intact promastigotes, rapid filtration
Format: cell-based
Settings: read-out: Percent arginine transport inhibition
From the text: inhibition of [3H]arginine uptake by intact promastigotes, rapid filtration on LdAAP3

SMILES	inhibition at 1000 µM [%]	also measured
N=C(N)c1ccc(OCCCCCOc2ccc(C(=N)N)cc2)cc1 [compound 2, Pentamidine]	–	inhibition at 100 µM: 38%
CNC(=N)NCCC[C@H](N)C(=O)O [compound 3, N-Methyl L-Arginine Acetate]	66	–
N=C(N)NOCC[C@H](N)C(=O)O [compound 4, Canavanine]	–	inhibition at 500 µM: 40%
NC(=O)NCCC[C@H](N)C(=O)O [compound 9, L-citrulline]	10	–
